According to US10947271B2, “Antibacterial agents” (THE UNIVERSITY OF QUEENSLAND, priority 2014, dated 2021):

Experiments:
Type in all cases: cell-based
Conditions in all cases: 24 h incubation, visual reading
[1] = system: Streptococcus pneumoniae MDR ATCC 700677; experiment: MIC assay, S. pneumoniae MDR ATCC 700677
Procedure, shortened: (§1)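 Overnight MHB cultures at 37° C were diluted 40-fold and grown 2-3 hrs to mid-log, then added at 5×10e5 CFU/mL to twofold compound dilutions (8 to 0.003 μg/ml). Plates were incubated 24 h at 37° C and MIC scored by eye.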

[2] = system: Staphylococcus aureus MRSA ATCC 43300; experiment: MIC assay, S. aureus MRSA ATCC 43300
Procedure, shortened: as §1

[3] = system: Enterococcus faecium MDR Van A ATCC 51559; experiment: MIC assay, E. faecium MDR Van A ATCC 51559
Procedure, shortened: as §1

Minimum Inhibitory Concentration (MIC) S. pneumoniae ATCC 700677 [1]	Minimum Inhibitory Concentration (MIC) Staph. aureus ATCC43300 [2]	Minimum Inhibitory Concentration (MIC) E. faecium ATCC51559 [3]	Compound
xxxx (xxxx = 0.01-<0.1)	xxxx (xxxx = 0.01-<0.1)	xx (xx = 1-4)	CCCCCCCCCCCC(=O)N[C@@H](CCCCN)C(=O)N[C@@H](CCCCNC(=O)[C@H]1NC(=O)[C@H]2NC(=O)[C@H](NC(=O)[C@@H]3NC(=O)[C@H](CC(N)=O)NC(=O)[C@H](NC(=O)[C@@H](CC(C)C)NC)[C@H](O)c4ccc(c(Cl)c4)Oc4cc3cc(c4O[C@@H]3O[C@H](CO)[C@@H](O)[C@H](O)[C@H]3O[C@H]3C[C@](C)(N)[C@H](O)[C@H](C)O3)Oc3ccc(cc3Cl)[C@H]2O)c2ccc(O)c(c2)-c2c(O)cc(O)cc21)C(=O)O [MCC_005224]
xxxxx (xxxxx = <0.01)	xxxxx (xxxxx = <0.01)	xxx (xxx = 0.1-<1)	CCCCCCCCCCC(=O)N[C@@H](CCCCN)C(=O)N[C@@H](CCCCN)C(=O)NCc1cccc(CNC(=O)[C@H]2NC(=O)[C@H]3NC(=O)[C@H](NC(=O)[C@@H]4NC(=O)[C@H](CC(N)=O)NC(=O)[C@H](NC(=O)[C@@H](CC(C)C)NC)[C@H](O)c5ccc(c(Cl)c5)Oc5cc4cc(c5O[C@@H]4O[C@H](CO)[C@@H](O)[C@H](O)[C@H]4O[C@H]4C[C@](C)(N)[C@H](O)[C@H](C)O4)Oc4ccc(cc4Cl)[C@H]3O)c3ccc(O)c(c3)-c3c(O)cc(O)cc32)c1 [MCC_005044]
xxxx (xxxx = 0.01-<0.1)	xxxxx (xxxxx = <0.01)	xx (xx = 1-4)	CCCCCCCCCCC(=O)N[C@@H](CCCCN)C(=O)N[C@@H](CCCCN)C(=O)N[C@@H](CCCCN)C(=O)NCCNC(=O)[C@H]1NC(=O)[C@H]2NC(=O)[C@H](NC(=O)[C@@H]3NC(=O)[C@H](CC(N)=O)NC(=O)[C@H](NC(=O)[C@@H](CC(C)C)NC)[C@H](O)c4ccc(c(Cl)c4)Oc4cc3cc(c4O[C@@H]3O[C@H](CO)[C@@H](O)[C@H](O)[C@H]3O[C@H]3C[C@](C)(N)[C@H](O)[C@H](C)O3)Oc3ccc(cc3Cl)[C@H]2O)c2ccc(O)c(c2)-c2c(O)cc(O)cc21 [MCC_005182]
xxxxx (xxxxx = <0.01)	xxxxx (xxxxx = <0.01)	xxx (xxx = 0.1-<1)	CCCCCCCCCCCC(=O)N[C@@H](CCCCN)C(=O)N[C@@H](CCCCN)C(=O)NCCCNC(=O)[C@H]1NC(=O)[C@H]2NC(=O)[C@H](NC(=O)[C@@H]3NC(=O)[C@H](CC(N)=O)NC(=O)[C@H](NC(=O)[C@@H](CC(C)C)NC)[C@H](O)c4ccc(c(Cl)c4)Oc4cc3cc(c4O[C@@H]3O[C@H](CO)[C@@H](O)[C@H](O)[C@H]3O[C@H]3C[C@](C)(N)[C@H](O)[C@H](C)O3)Oc3ccc(cc3Cl)[C@H]2O)c2ccc(O)c(c2)-c2c(O)cc(O)cc21 [MCC_000978]
xxxx (xxxx = 0.01-<0.1)	xxxxx (xxxxx = <0.01)	x (x = >4)	CCCCCCCCCCC(=O)N[C@@H](CCCCN)C(=O)NCCNC(=O)[C@H]1NC(=O)[C@H]2NC(=O)[C@H](NC(=O)[C@@H]3NC(=O)[C@H](CC(N)=O)NC(=O)[C@H](NC(=O)[C@@H](CC(C)C)NC)[C@H](O)c4ccc(c(Cl)c4)Oc4cc3cc(c4O[C@@H]3O[C@H](CO)[C@@H](O)[C@H](O)[C@H]3O[C@H]3C[C@](C)(N)[C@H](O)[C@H](C)O3)Oc3ccc(cc3Cl)[C@H]2O)c2ccc(O)c(c2)-c2c(O)cc(O)cc21 [MCC_005163]

More lines, now with the values behind:

Compound	Minimum Inhibitory Concentration (MIC) S. pneumoniae ATCC 700677 [1]	Minimum Inhibitory Concentration (MIC) Staph. aureus ATCC43300 [2]	Minimum Inhibitory Concentration (MIC) E. faecium ATCC51559 [3]
CCCCCCC(CCCC)C(=O)NCCCCC(NC(=O)C(CCCC)CCCCCC)C(=O)NC(CCCCN)C(=O)NC(CCCCNC(=O)C1NC(=O)C2NC(=O)C(NC(=O)C3NC(=O)C(CC(N)=O)NC(=O)C(NC(=O)C(CC(C)C)NC)C(O)c4ccc(c(Cl)c4)Oc4cc3cc(c4OC3OC(CO)C(O)C(O)C3OC3CC(C)(N)C(O)C(C)O3)Oc3ccc(cc3Cl)C2O)c2ccc(O)c(c2)-c2c(O)cc(O)cc21)C(=O)NC (stereo not drawn) [MCC_000497]	xxx (xxx = 0.1-<1)	xxx (xxx = 0.1-<1)	xxx (xxx = 0.1-<1)
CNC(CC(C)C)C(=O)NC1C(=O)NC(CC(N)=O)C(=O)NC2C(=O)NC3C(=O)NC(C(=O)NC(C(=O)NCCCCC(NC(=O)C(CCCCN)NC(=O)C(CCCCN)NC(=O)CNC(=O)c4ccc(Oc5ccccc5)cc4)C(=O)O)c4cc(O)cc(O)c4-c4cc3ccc4O)C(O)c3ccc(c(Cl)c3)Oc3cc2cc(c3OC2OC(CO)C(O)C(O)C2OC2CC(C)(N)C(O)C(C)O2)Oc2ccc(cc2Cl)C1O (stereo not drawn) [MCC_000381]	xx (xx = 1-4)	xxx (xxx = 0.1-<1)	x (x = >4)
CNC(=O)[C@H](CCCCNC(=O)[C@H]1NC(=O)[C@H]2NC(=O)[C@H](NC(=O)[C@@H]3NC(=O)[C@H](CC(N)=O)NC(=O)[C@H](NC(=O)[C@@H](CC(C)C)NC)[C@H](O)c4ccc(c(Cl)c4)Oc4cc3cc(c4O[C@@H]3O[C@H](CO)[C@@H](O)[C@H](O)[C@H]3O[C@H]3C[C@](C)(N)[C@H](O)[C@H](C)O3)Oc3ccc(cc3Cl)[C@H]2O)c2ccc(O)c(c2)-c2c(O)cc(O)cc21)NC(=O)[C@H](CCCCN)NC(=O)[C@H](CCCCN)NC(=O)[C@H](CCCCNC(=O)Cc1ccc(-c2ccccc2)cc1)NC(=O)Cc1ccc(-c2ccccc2)cc1 [MCC_000652]	xxxxx (xxxxx = <0.01)	xxxxx (xxxxx = <0.01)	xxx (xxx = 0.1-<1)
CCCCCCCCCCCCC(=O)NC(CCCCN)C(=O)NC(CCCCN)C(=O)NC(CCCCNC(=O)C1NC(=O)C2NC(=O)C(NC(=O)C3NC(=O)C(CC(N)=O)NC(=O)C(NC(=O)C(CC(C)C)NC)C(O)c4ccc(c(Cl)c4)Oc4cc3cc(c4OC3OC(CO)C(O)C(O)C3OC3CC(C)(N)C(O)C(C)O3)Oc3ccc(cc3Cl)C2O)c2ccc(O)c(c2)-c2c(O)cc(O)cc21)C(=O)NC (stereo not drawn) [MCC_000494]	xxxxx (xxxxx = <0.01)	xxxxx (xxxxx = <0.01)	xx (xx = 1-4)
CNC(=O)C(CCCCNC(=O)C1NC(=O)C2NC(=O)C(NC(=O)C3NC(=O)C(CC(N)=O)NC(=O)C(NC(=O)C(CC(C)C)NC)C(O)c4ccc(c(Cl)c4)Oc4cc3cc(c4OC3OC(CO)C(O)C(O)C3OC3CC(C)(N)C(O)C(C)O3)Oc3ccc(cc3Cl)C2O)c2ccc(O)c(c2)-c2c(O)cc(O)cc21)NC(=O)C(CCCCN)NC(=O)C(CCCCN)NC(=O)c1ccc(Oc2ccc(Cl)cc2)cc1 (stereo not drawn) [MCC_000516]	xxxxx (xxxxx = <0.01)	xxxxxx	x (x = >4)
CN[C@H](CC(C)C)C(=O)N[C@H]1C(=O)N[C@@H](CC(N)=O)C(=O)N[C@H]2C(=O)N[C@H]3C(=O)N[C@H](C(=O)N[C@H](C(=O)NCCCC[C@H](NC(=O)[C@H](CCCCN)NC(=O)[C@H](CCCCN)NC(=O)c4ccc(Cl)cc4)C(=O)O)c4cc(O)cc(O)c4-c4cc3ccc4O)[C@H](O)c3ccc(c(Cl)c3)Oc3cc2cc(c3O[C@@H]2O[C@H](CO)[C@@H](O)[C@H](O)[C@H]2O[C@H]2C[C@](C)(N)[C@H](O)[C@H](C)O2)Oc2ccc(cc2Cl)[C@H]1O [MCC_005505]	xx (xx = 1-4)	xx (xx = 1-4)	x (x = >4)
CNC(=O)C(CCCCNC(=O)C1NC(=O)C2NC(=O)C(NC(=O)C3NC(=O)C(CC(N)=O)NC(=O)C(NC(=O)C(CC(C)C)NC)C(O)c4ccc(c(Cl)c4)Oc4cc3cc(c4OC3OC(CO)C(O)C(O)C3OC3CC(C)(N)C(O)C(C)O3)Oc3ccc(cc3Cl)C2O)c2ccc(O)c(c2)-c2c(O)cc(O)cc21)NC(=O)C(CCCCN)NC(=O)C(CCCCNC(=O)c1ccc(OCc2ccccc2)cc1)NC(=O)c1ccc(OCc2ccccc2)cc1 (stereo not drawn) [MCC_000519]	xxxxx (xxxxx = <0.01)	xxxxx (xxxxx = <0.01)	xx (xx = 1-4)
CCCCCCCCCC(=O)N[C@@H](CCCNC(=N)N)C(=O)N[C@@H](CCCNC(=N)N)C(=O)NCCCNC(=O)[C@H]1NC(=O)[C@H]2NC(=O)[C@H](NC(=O)[C@@H]3NC(=O)[C@H](CC(N)=O)NC(=O)[C@H](NC(=O)[C@@H](CC(C)C)NC)[C@H](O)c4ccc(c(Cl)c4)Oc4cc3cc(c4O[C@@H]3O[C@H](CO)[C@@H](O)[C@H](O)[C@H]3O[C@H]3C[C@](C)(N)[C@H](O)[C@H](C)O3)Oc3ccc(cc3Cl)[C@H]2O)c2ccc(O)c(c2)-c2c(O)cc(O)cc21 [MCC_005482]	xxxxx (xxxxx = <0.01)	xxxxx (xxxxx = <0.01)	xx (xx = 1-4)
CNC(=O)C(CCCCNC(=O)C1NC(=O)C2NC(=O)C(NC(=O)C3NC(=O)C(CC(N)=O)NC(=O)C(NC(=O)C(CC(C)C)NC)C(O)c4ccc(c(Cl)c4)Oc4cc3cc(c4OC3OC(CO)C(O)C(O)C3OC3CC(C)(N)C(O)C(C)O3)Oc3ccc(cc3Cl)C2O)c2ccc(O)c(c2)-c2c(O)cc(O)cc21)NC(=O)C(CCCCN)NC(=O)C(CCCCNC(=O)CCCCCc1ccccc1)NC(=O)CCCCCc1ccccc1 (stereo not drawn) [MCC_000508]	xxxxx (xxxxx = <0.01)	xxxxx (xxxxx = <0.01)	xx (xx = 1-4)
CCCCCC1CCC(C(=O)NC(CCCCN)C(=O)NC(CCCCN)C(=O)NCCCNC(=O)C2NC(=O)C3NC(=O)C(NC(=O)C4NC(=O)C(CC(N)=O)NC(=O)C(NC(=O)C(CC(C)C)NC)C(O)c5ccc(c(Cl)c5)Oc5cc4cc(c5OC4OC(CO)C(O)C(O)C4OC4CC(C)(N)C(O)C(C)O4)Oc4ccc(cc4Cl)C3O)c3ccc(O)c(c3)-c3c(O)cc(O)cc32)CC1 (stereo not drawn) [MCC_005485]	xxxxx (xxxxx = <0.01)	xxxxx (xxxxx = <0.01)	xx (xx = 1-4)
